Reference: ChEMBL document CHEMBL1201862, “PubChem BioAssay data set” (2004)
Activity calls are given as the source filed them.

Tests used:
[1] = target: T1, Streptokinase A (Streptococcus pyogenes serotype M1, UniProt P10520); test: viability-normalized secreted streptokinase activity reduction – plasminogen activation absorbance, OD405, dose response (AID 1914); type: functional, Streptococcus pyogenes M1 GAS;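 note: secreted streptokinase activity via plasminogen activation per viability signal from cell pellet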
T1 sequence (P10520 whole entry): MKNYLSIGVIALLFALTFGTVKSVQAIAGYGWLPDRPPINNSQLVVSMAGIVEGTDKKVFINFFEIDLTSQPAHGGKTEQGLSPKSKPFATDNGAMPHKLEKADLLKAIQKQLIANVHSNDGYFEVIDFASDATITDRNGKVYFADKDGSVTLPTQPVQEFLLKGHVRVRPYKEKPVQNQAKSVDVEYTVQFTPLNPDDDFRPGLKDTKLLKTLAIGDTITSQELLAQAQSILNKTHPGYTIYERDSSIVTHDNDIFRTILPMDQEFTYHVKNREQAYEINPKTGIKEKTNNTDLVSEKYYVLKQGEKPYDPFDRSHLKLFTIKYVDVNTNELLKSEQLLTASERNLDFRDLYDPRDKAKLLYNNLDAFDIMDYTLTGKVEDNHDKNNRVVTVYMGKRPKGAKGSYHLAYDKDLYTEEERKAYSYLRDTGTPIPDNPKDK

[2] = target: Cytochrome P450 2D6 (Homo sapiens, UniProt P10635);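 note: CYP2D6 member of a cytochrome P450 panel assay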
[3] = target: Cytochrome P450 3A4 (Homo sapiens, UniProt P08684);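 note: CYP3A4 tested as one member of a cytochrome P450 panel screen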
[4] = target: Cytochrome P450 2C9 (Homo sapiens, UniProt P11712)
[5] = tested on: Streptococcus sp. 'group A'; test: Streptococcus pyogenes SK(-)GAS viability under kanamycin – luminescence, BacTiterGlo, confirmation, counter-screen for streptokinase expression inhibitor project, dose response (AID 1900); type: functional, organism-based
[6] = tested on: Streptococcus; test: GAS UMAA2166 growth inhibition – luminescence, BacTiterGlo, counter-screen for streptokinase expression inhibitor project, dose response (AID 1915); type: functional, organism-based;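 note: potency for reduction of bacterial viability or growth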
[7] = target: T2, Rac GTPase-activating protein 1 (Homo sapiens, UniProt Q9H0H5); test: blockers of MgcRacGAP-driven Rac1 GTP hydrolysis – biochemical, ADP Hunter fluorescence, primary and confirmatory, confirmation (AID 624330); type: functional
T2 sequence (Q9H0H5 whole entry): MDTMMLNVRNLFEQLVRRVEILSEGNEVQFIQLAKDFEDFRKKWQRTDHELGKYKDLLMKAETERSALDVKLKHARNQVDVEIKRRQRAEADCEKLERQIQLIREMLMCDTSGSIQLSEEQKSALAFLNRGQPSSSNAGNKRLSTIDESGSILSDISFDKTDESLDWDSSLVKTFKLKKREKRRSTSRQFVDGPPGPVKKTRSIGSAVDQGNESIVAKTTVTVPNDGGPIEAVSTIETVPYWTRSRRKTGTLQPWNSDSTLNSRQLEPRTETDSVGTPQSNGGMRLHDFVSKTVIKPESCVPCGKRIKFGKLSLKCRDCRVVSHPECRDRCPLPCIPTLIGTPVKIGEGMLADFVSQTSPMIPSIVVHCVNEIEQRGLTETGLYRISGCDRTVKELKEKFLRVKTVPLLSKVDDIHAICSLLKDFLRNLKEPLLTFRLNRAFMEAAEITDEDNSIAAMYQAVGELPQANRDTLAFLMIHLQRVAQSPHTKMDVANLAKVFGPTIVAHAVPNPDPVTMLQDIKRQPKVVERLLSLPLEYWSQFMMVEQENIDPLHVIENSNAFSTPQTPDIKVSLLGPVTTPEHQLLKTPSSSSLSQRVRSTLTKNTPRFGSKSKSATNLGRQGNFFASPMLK

[8] = target: Cytochrome P450 2C19 (Homo sapiens, UniProt P33261); test: Cytochrome panel assay with activity outcomes. Panel member name: p450-cyp2c19 Compounds with AC50 equal or less than 10 uM are considered active; type: functional; conditions: read-out: AC50
[9] = tested on: H4; test: Luminescence Cell-Based Dose Response HTS to Identify Activators of 5'UTR Stem-Loop Driven Prion Protein mRNA Translation in H4 Neuroglioblastoma Cells. [Related pubchem assays: 1829 (Project Summary), 1814 (Primary HTS)]; type: functional; conditions: Homo sapiens
[10] = target: T3, Cytochrome P450 1A2 (Homo sapiens, UniProt P05177);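 note: PubChem cytochrome P450 panel assay, CYP1A2 panel member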
T3 sequence (P05177 whole entry): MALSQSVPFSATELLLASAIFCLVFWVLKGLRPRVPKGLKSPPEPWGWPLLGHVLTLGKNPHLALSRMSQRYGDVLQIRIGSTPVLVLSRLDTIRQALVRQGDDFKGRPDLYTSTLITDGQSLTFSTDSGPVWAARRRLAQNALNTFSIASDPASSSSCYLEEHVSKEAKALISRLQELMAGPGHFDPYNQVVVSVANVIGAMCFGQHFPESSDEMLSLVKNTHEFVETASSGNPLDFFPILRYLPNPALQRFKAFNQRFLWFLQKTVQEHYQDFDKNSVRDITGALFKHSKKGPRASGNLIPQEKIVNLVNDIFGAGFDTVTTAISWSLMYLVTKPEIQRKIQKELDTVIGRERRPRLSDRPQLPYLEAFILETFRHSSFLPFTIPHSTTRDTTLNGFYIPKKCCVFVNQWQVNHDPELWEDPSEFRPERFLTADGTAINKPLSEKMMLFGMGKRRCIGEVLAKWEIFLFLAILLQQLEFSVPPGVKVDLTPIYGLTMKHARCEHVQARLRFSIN

[11] = Luminescence Cell-Based Dose Retest to Confirm Inhibitors of Cancer Stem Cells. [Related pubchem assays (depositor defined):AID2717, AID2721]; type: functional; conditions: Homo sapiens
[12] = Trypanosoma cruzi growth suppression in host cells – NIH3T3 host cells, beta-gal luminescence, confirmation (AID 2044); type: functional, cell-based;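 note: intracellular parasites grown in NIH/3T3 mouse fibroblasts as host cells; luminescent beta-galactosidase reporter signal from transgenic T. cruzi replicating inside host cells; inhibitors lower the luminescence signal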
[13] = NIH3T3 cell viability loss – ATP luminescence, mouse fibroblasts, counter-screen, dose response (AID 2010); type: functional, cell-based;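 note: cells exposed to compound for about 90 hours before reading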

Cytochrome P450 2C9, sequence (P11712 whole entry): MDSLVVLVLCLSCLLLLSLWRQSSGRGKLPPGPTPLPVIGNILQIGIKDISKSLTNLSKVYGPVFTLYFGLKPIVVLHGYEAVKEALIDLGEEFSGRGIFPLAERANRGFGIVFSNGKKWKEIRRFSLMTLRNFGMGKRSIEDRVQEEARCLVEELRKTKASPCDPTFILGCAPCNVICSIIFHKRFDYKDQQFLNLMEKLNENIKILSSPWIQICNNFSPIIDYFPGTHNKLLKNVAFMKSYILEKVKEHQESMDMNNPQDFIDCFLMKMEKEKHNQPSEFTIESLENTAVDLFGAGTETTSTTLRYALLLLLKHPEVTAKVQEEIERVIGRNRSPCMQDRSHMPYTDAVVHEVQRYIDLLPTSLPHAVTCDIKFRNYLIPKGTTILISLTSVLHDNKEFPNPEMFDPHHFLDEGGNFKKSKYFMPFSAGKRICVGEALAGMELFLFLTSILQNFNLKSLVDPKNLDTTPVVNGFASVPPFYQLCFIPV
Cytochrome P450 2C19, sequence (P33261 whole entry): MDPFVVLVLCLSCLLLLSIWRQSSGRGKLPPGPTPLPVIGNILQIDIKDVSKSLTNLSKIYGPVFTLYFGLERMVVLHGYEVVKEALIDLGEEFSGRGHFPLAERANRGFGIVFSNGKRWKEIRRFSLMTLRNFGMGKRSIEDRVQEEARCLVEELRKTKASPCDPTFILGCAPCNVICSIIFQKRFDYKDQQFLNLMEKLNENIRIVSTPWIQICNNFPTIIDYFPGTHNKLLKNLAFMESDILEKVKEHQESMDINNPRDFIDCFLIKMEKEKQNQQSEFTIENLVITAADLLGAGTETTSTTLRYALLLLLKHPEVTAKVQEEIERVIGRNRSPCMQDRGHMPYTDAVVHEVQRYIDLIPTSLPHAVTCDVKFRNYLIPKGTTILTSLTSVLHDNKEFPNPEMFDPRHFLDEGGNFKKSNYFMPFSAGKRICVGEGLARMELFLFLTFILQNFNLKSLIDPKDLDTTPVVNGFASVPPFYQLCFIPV
Cytochrome P450 3A4, sequence (P08684 whole entry): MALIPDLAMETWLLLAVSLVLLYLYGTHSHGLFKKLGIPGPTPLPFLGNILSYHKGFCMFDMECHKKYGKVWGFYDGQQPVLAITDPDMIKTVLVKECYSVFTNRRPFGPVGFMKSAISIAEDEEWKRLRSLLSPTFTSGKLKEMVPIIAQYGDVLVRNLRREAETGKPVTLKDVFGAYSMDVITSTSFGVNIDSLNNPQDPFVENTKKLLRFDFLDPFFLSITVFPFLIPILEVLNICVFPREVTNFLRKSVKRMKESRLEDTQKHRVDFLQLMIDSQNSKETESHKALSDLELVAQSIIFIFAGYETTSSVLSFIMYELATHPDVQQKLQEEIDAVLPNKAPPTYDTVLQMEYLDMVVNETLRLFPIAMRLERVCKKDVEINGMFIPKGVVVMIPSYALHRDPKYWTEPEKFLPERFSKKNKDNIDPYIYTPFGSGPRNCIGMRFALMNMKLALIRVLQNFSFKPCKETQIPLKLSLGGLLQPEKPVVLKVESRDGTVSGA
Cytochrome P450 2D6, sequence (P10635 whole entry): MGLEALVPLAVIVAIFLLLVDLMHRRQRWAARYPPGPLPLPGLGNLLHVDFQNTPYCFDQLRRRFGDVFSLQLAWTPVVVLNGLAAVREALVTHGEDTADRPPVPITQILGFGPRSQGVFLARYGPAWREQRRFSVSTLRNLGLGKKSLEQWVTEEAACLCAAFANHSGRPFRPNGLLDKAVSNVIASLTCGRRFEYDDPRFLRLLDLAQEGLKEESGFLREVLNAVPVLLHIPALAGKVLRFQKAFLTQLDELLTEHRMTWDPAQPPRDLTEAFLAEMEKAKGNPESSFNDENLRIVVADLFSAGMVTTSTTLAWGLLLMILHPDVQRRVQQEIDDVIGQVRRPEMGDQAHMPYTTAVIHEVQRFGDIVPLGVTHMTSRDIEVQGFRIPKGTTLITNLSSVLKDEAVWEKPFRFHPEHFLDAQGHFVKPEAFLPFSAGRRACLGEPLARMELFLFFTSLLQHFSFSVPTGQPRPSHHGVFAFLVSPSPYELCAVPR

Structure (SMILES): O=C(CSc1nc(-c2ccc(Cl)cc2)nc(=O)[nH]1)Nc1cccc(Cl)c1
- EC50 [1]: 4.65 µM (active)

Structure (SMILES): N#Cc1cccc(NC(=O)N2CC3(CCN(C(=O)c4cc(C(F)(F)F)cc(C(F)(F)F)c4)CC3)C2)c1
- AC50 [2]: 20 µM (inconclusive)
- AC50 [3]: 31.6 µM (inconclusive)

Structure (SMILES): CN(C)c1ncc2ncc(=O)n(Cc3cccs3)c2n1
- AC50 [2]: 12.6 µM (inconclusive)
- AC50 [3]: 15.8 µM (inconclusive)
- AC50 [4]: 39.8 µM (inconclusive)

Structure (SMILES): CN1CCN(NC(=O)Nc2cc(Cl)cc(Cl)c2)CC1
- EC50 [5]: 6.77 µM (active)
- EC50 [1]: 21.7 µM (active)
- EC50 [6]: > 150 µM (not active)

Structure (SMILES): CC(=O)N1CCC2(CCCN(C(c3ccccc3)c3ccccc3)C2)CC1
- AC50 [3]: 12.6 µM (inconclusive)
- AC50 [4]: 31.6 µM (inconclusive)

Structure (SMILES): O=C(c1cc(-c2cccs2)nc2ccccc12)N1CCN(c2ccccc2O)CC1
- EC50 [5]: 21.8 µM (active)
- EC50 [1]: 144 µM (active)
- EC50 [6]: 54.8 µM (active)

Structure (SMILES): Nc1ccc(OCCc2ccccc2)cc1
- IC50 [7]: 31.2 µM (active)

Structure (SMILES): Cc1ccc2c(c1)N(CCC(=O)NCCN1CCOCC1)C(=O)CO2
- AC50 [8]: 39.8 µM (inconclusive)
- AC50 [3]: 25.1 µM (inconclusive)
- AC50 [4]: 39.8 µM (inconclusive)

Structure (SMILES): CCC(Nc1cc(OC)ccc1OC)=C1C(=O)NC(=O)NC1=O
- AC50 [8]: 31.6 µM (inconclusive)
- AC50 [3]: 39.8 µM (inconclusive)

Structure (SMILES): COc1ccccc1C(=O)COC(=O)c1ccc(N(C)C)cc1
- EC50 [9]: 1.79 µM (active)

Structure (SMILES): Cc1ccc(-c2nc3nc(O)cc(NC(=O)c4cccs4)n3n2)cc1
- EC50 [5]: 15.4 µM (active)
- EC50 [1]: > 150 µM (not active)
- EC50 [6]: > 150 µM (not active)

Structure (SMILES): O=C1CC(=O)N(CCc2ccc(F)cc2)C(=O)N1
- AC50 [8]: 31.6 µM (inconclusive)
- AC50 [3]: 31.6 µM (inconclusive)
- AC50 [4]: 25.1 µM (inconclusive)

Structure (SMILES): O=c1[nH]c2ccccc2/c(=N\S(=O)(=O)c2ccc(Cl)cc2)n1-c1ccccc1
- AC50 [8]: 25.1 µM (inconclusive)
- AC50 [10]: 8.91 µM (inconclusive)
- AC50 [3]: 2.82 µM (inconclusive)
- AC50 [4]: 0.891 µM (inconclusive)

Structure (SMILES): O=C(c1c(Cl)cccc1Cl)N1CCN(c2cccc3[nH]ccc23)CC1
- IC50 [7]: 50.4 µM (active)

Structure (SMILES): CCn1c2ccccc2c2cc(NS(=O)(=O)c3ccc(C)cc3)ccc21
- AC50 [11]: 2.87 µM (active)

Structure (SMILES): COCc1cc(C)nc(OCC(=O)N/N=C/c2ccc(O)cc2)c1C#N
- IC50 [7]: 83.2 µM (active)

Structure (SMILES): COc1ccc(CNc2ncc(-c3ccc(Br)cc3)n2C)cc1OC
- IC50 [7]: 55.6 µM (active)

Structure (SMILES): CCc1ccc(/C=C/c2c([N+](=O)[O-])c(=O)n(C)c(=O)n2C)cc1
- EC50 [5]: 4.55 µM (active)
- EC50 [1]: > 150 µM (not active)
- EC50 [6]: 18 µM (active)

Structure (SMILES): Oc1ccc2c(ccc3[nH]cnc32)c1
- IC50 [7]: 43.9 µM (active)

Structure (SMILES): CCN(CC)c1ccc(S(=O)(=O)Nc2cc(Cl)ccc2Cl)cc1NC(=S)NC(=O)C1CCCC1
- AC50 [11]: 1.65 µM (active)

Structure (SMILES): Cc1ccc(-n2nnnc2SCC(=O)c2cc(C)n(-c3cc(C)on3)c2C)c(C)c1
- EC50 [5]: 25.6 µM (active)
- EC50 [1]: 89.2 µM (active)
- EC50 [6]: > 150 µM (not active)

Structure (SMILES): Cc1sc2ncnc(N3CCC(C(=O)Nc4ccc(Cl)cc4Cl)CC3)c2c1C
- EC50 [5]: 23.6 µM (active)
- EC50 [1]: 91.7 µM (active)
- EC50 [6]: 66 µM (active)

Structure (SMILES): COc1ccc(C(=O)CSc2[nH]c(=O)cc(C(F)(F)F)c2C#N)cc1
- EC50 [1]: 8.62 µM (active)

Structure (SMILES): O=c1[nH]c(=S)[nH]c(-c2ccccc2)c1Cc1c(O)ccc2ccccc12 [CAMBINOL]
- AC50 [8]: 0.0794 µM (inconclusive)
- AC50 [10]: 1 µM (inconclusive)
- AC50 [3]: 0.631 µM (inconclusive)
- AC50 [4]: 7.94 µM (inconclusive)

Structure (SMILES): Cc1nc(Nc2nc(-c3ccccc3)cc(=O)[nH]2)nc2ccccc12
- EC50 [1]: > 150 µM (not active)

Structure (SMILES): O=C(NCc1cc(F)cc2c1OCCO2)[C@H]1C[C@@H]1[C@H](NP(=O)(c1ccccc1)c1ccccc1)c1ccccc1
- AC50 [3]: 3.98 µM (inconclusive)

Structure (SMILES): COc1ccc(-c2sc3ccccc3c2C#CC2(O)CCCCC2)cc1
- EC50 [5]: 3.52 µM (active)
- EC50 [1]: 6.81 µM (active)
- EC50 [6]: 8.22 µM (active)
- AC50 [11]: 3.73 µM (active)

Structure (SMILES): CC(C)CC(=O)N1CCC(O)(CS(=O)(=O)Cc2ccc(Cl)cc2)CC1
- AC50 [3]: 8.91 µM (inconclusive)

Structure (SMILES): C/C(N=Nc1ccccc1O)=N\Nc1nc2ccccc2s1
- AC50 [11]: 3.71 µM (active)

Structure (SMILES): CCOC(=O)c1c(-c2ccccc2)csc1NC(=O)c1nn(CC)cc1Br
- EC50 [12]: 2.06 µM (active)
- EC50 [13]: > 60 µM (not active)
- AC50 [11]: 0.506 µM (active)

Structure (SMILES): Cc1cc(NC(=O)c2cnccn2)no1
- EC50 [5]: > 150 µM (not active)
- EC50 [1]: > 150 µM (not active)
- EC50 [6]: > 150 µM (not active)

Structure (SMILES): CCN1CCN(CC(=O)Nc2nc3ccccc3s2)CC1
- IC50 [7]: 55.7 µM (active)

Structure (SMILES): NC(=NNC(=O)c1sccc1OCc1ccc(Cl)cc1Cl)c1ccccn1
- EC50 [1]: 35.4 µM (active)

Structure (SMILES): Cc1ccc(/C(C#N)=C\c2ccc(N3CCOCC3)o2)cc1
- EC50 [12]: 4.37 µM (active)
- EC50 [13]: > 60 µM (inconclusive)
- IC50 [7]: 65.6 µM (active)

Structure (SMILES): O=C(CN1CCN(S(=O)(=O)c2ccccc2F)CC1)N1CCc2ccccc2C1
- IC50 [7]: 47.1 µM (active)

Structure (SMILES): CCOC(=O)c1c(N)sc2c(OC)c(Br)ccc12
- IC50 [7]: 203 µM (active)

Structure (SMILES): O=S(=O)(Nc1cc(O)nc(SCc2ccc(Cl)cc2)n1)c1ccccc1
- AC50 [11]: 4.07 µM (active)

Structure (SMILES): CCn1c(C)nc2cc(C(=O)NNC(=S)NC(=O)c3ccc(OC)cc3)ccc21
- EC50 [5]: 9.55 µM (active)
- EC50 [1]: > 150 µM (not active)
- EC50 [6]: 95.3 µM (active)

Structure (SMILES): CC(C)c1ccc(C(=O)NC(=S)Nc2ccc3[nH]c(=O)[nH]c3c2)cc1
- EC50 [1]: > 150 µM (not active)

Structure (SMILES): CC(C)N1CCN(C(=O)c2cccc(Cl)c2)CC1
- IC50 [7]: 295 µM (active)

Structure (SMILES): CCC(=O)NNc1ccc(Br)cc1
- AC50 [11]: 1.82 µM (active)

Structure (SMILES): C/C(=N\NC(=S)Nc1ccc(F)cc1)c1ccc2c(c1)OCCO2
- AC50 [11]: 1.02 µM (active)

Structure (SMILES): Oc1ccc(Br)cc1CNn1cnnc1
- AC50 [10]: 14.1 µM (inconclusive)
- AC50 [3]: 35.5 µM (inconclusive)
- AC50 [4]: 17.8 µM (inconclusive)

Structure (SMILES): CN(CC(=O)Nc1ccccc1Cl)C(=O)c1cccc(-n2cccc2)c1
- AC50 [11]: > 195 µM (inactive)

Structure (SMILES): Cc1ccc(NC(=S)NC(=O)c2ccc(F)cc2)cc1S(=O)(=O)Nc1cccc(Cl)c1
- EC50 [5]: 1.48 µM (active)
- EC50 [1]: 11.5 µM (active)
- EC50 [6]: 54.2 µM (active)
